According to patent US11622975B2, “Compositions and methods for improved honey bee health” (priority 2019, dated 2023):

Tests used:
honey bee colonies = assay: Overwintering field trial of honey bee colonies treated with HPBCD and acaricide; type: in vivo; settings: for colony (hive) loss: fed October to December, surviving hives counted in March, 10 colonies per treatment, no treatment about 50%; for total frames containing bees: measured in March after overwintering, no treatment 50 frames
Experimental: This example illustrates the use of HPBCD in a field setting. Four treatments with 10 colonies per treatment were performed as follows: (i) No HPBCD and no acaricide (No Treatment control), (ii) acaricide alone (Amitraz), (iii) HPBCD, and (iv) a combination of Amitraz and HPBCD. Colonies were fed treatments using a top box feeder in a “Langstroth Hive” from October to December, then surviving hives were counted in March of the following year and numbers of Langstroth frames containing bees were measured. About 50% of the colonies that received no treatment were lost; while it is a high level of loss it was within the expected range for hives that received no extra management besides sugar syrup supplementation (which agrees with the national average for untreated colonies). The group receiving only Amitraz, the current industry standard for mite control, lost about 20% of the colonies. HPBCD on its own was able to reduce hive loss to about 30%. […] Not intending to be bound by theory, one possible explanation for this profound effect is that Amitraz was lethal to mites based on contact (LC50), while the possible sub lethal and chronic affects for the honey bee were dosage based (LD50) as evidenced by slower behavioral response time (see e.g., De Mattos, 2017). It is likely the bees ingest the HPBCD and the Amitraz was sequestered rendering its effects on the bee diminished, while the groups that received no HPBCD were still susceptible to the effects of the acaricide.

honey bees [1] = assay: Cage survival study of bees fed sublethal doses of pesticides with or without MBCD; type: in vivo, Apis mellifera
Experimental: (§1) This example illustrates the baseline effects of the inventive composition in the absence of an exogenous stressor. Samples of European honey bees, Apis mellifera, were collected from colonies maintained in the apiaries of the USDA-ARS Bee Research Laboratory in Beltsville, Md. Frames with emerging brood were removed from colonies and individually placed in a mesh-walled cage. The cages were transferred to an insect growth chamber at 34° C. and 70% humidity. After 24 hrs incubation, newly emerged honey bees were transferred to a honey bee rearing cup, with a top-feeder design, allowing for easy sampling of honey bees (see e.g., Evans et al., 2009). A 3 mL syringe filled with 50% sugar syrup mixture was inverted over the top of the rearing cup to provision the caged honey bees. The honey bees were also provisioned with 1.5 grams of honey bee pollen supplement in patty form (e.g., Bee-Pro®, available from Mann Lake Ltd, Hackensack, Minn.), supplemented 10% (w/w) with ground fresh pollen, and placed on cotton paper on the cup cage bottoms. Syringes and sucrose solution were changed every 3 days and cotton paper was changed once per week.
In this example, whether MBCD mitigates the toxicity of certain pesticides associated with honey bee death was investigated. Not intending to be theory-bound, it was hypothesized that the binding of hydrophobic pesticide molecules to CDs would translate into health benefits to honey bees that were exposed to such pesticides. Samples of honey bees were collected as in example 1. A cage study (n=30 bees per cage & 2 replicate cages per treatment) was performed using 50% sucrose solution that had been spiked with sublethal doses of common pesticides that are known to be toxic to honey bees to measure the ability of treatment MBCD compositions to confer protection to the honey bees. Analytical grade standards of clothianidin, imidacloprid, and chlorpyrifos (available from MilliporeSigma, St. Louis, Mo.) were first dissolved in acetone, then diluted to their final concentrations (Table 2) in 50% sugar syrup. The listed sublethal doses were derived from taking half of the previously published honey bee LD50s (referred to a “LD25” in Table 2). The solutions were administered via 3 mL syringes in rearing cups as previously stated. Fresh pesticide solutions were mixed every 3 days to coincide with syringe replacement (see e.g., Williamson et al., 2013; Li et al, 2017).
Median survival is represented for each treatment by (# days). Curves were compared using Log-Rank Mantel-Cox (p<0.0001 for clothianidin versus control, 1, or 10 μg MBCD; p<0.001 for chlorpyrifos versus control or 1 μg MBCD) and Gehan-Breslow-Wilcoxon (p<0.0001 for clothianidin versus control, 1, or 10 μg MBCD; p<0.05 for chlorpyrifos versus control or 1 μg MBCD). […] The chlorpyrifos treatment was able to reduce median lifespan on its own to 26 days compared to the 36 days of the control (FIG. 2C). While a dosage of 10 μg/bee MBCD did increase median lifespan to 30 days, there was not a significant change in median lifespan.

honey bee = settings: half of previously published honey bee LD50; used as dose in the cage study; cited from earlier work
honey bees [2] = assay: MBCD and HPBCD alpha-tocopherol inclusion complex treatment of clothianidin-exposed bees, survival; type: in vivo, Apis mellifera; settings: clothianidin treatment alone, n=280 bees/treatment
Experimental: MBCD & HPBCD alpha-tocopherol inclusion complexes were formulated using 2.33 μL of +-(α)-tocopherol (1,000 I.U., available from MilliporeSigma, St. Louis, Mo.) added to 1 g of MBCD or HPBCD to arrive at a concentration of approximately 20 I.U. of tocopherol/bee/day and 10 μg (or other indicted dosage) of BCD/bee/day. The resulting powder can be stored at −20° C. or immediately dissolved into 4.166 L of water containing 50% sucrose. The resulting solution is stable and stored at 4° C. until further use. The comparative effects of MBCD versus HPBCD treated bees are shown for lab-controlled environment (n=280 bees/treatment).

[3] = test system: Deformed wing virus (DWV); assay: Viral load (RT-qPCR) in virus-infected honey bees after MBCD treatment; type: in vivo, Apis mellifera; settings: for decrease in DWV (+) sense viral genome / decrease in DWV (−) sense replicative strand: 10 μg/bee MBCD; for decrease in DWV (+) sense viral genome: versus untreated infected bees
Experimental: The presence of DWV and Varroa destructor was determined as follows. Total RNA was extracted from whole body 12 individual honey bees using the TRIzol Reagent® (available from Thermo Fisher Scientific, Waltham, Mass.) by manufacturers specifications, and stored at −80° C. First-strand cDNA was synthesized using the Superscript III Reverse Transcriptase (available in a kit from Thermo Fisher Scientific). Briefly, each reaction contained: 3 μl total bee RNA (˜1 μg/μl), 1 μl of 10 mM dNTPs, 1 μl random primers (0.15 μg/μl), 1 μL of Oligo(dT), 1 μl of 0.1 M DTT (0.1 M), 4 μl 5×First-Strand Buffer, 1 uL of 200 U/μL RnaseOUT, 1 μl of 200 U/μl SuperScript III Reverse Transcriptase, and 7 μl Nuclease-free water. The reaction mixture was incubated at 25° C. for 5 min, 55° C. for 2 hrs, and 70° C. for 15 min, then stored at −20° C. until use. Transcript levels (RT-qPCR analysis) were quantified using the Brilliant III Ultra-Fast SYBR Green® QPCR Master Mix (Agilent Technologies, Inc., Santa Clara, Calif.) on a CFX384 Touch Real Time PCR Detection System (Bio-Rad Laboratories, Inc., Hercules, Calif.). Samples were incubated at 95° C. for 5 min, followed by 40 cycles of 95° C. for 20 s, 59° C. for 20 s, and 72° C. for 20 s. Thereafter, a melt curve analysis from 65° C. to 95° C. was performed to confirm product specificity. For the detection and quantification of negative stranded bee viruses, replication intermediates, TAG-DWV primers were substituted for random primers or oligos (see e.g., Boncristiani et al., 2009). The fold difference in viral concentration among different treatment groups was determined using the comparative Ct method (2^−ΔΔCT method) (see e.g., Livak & Schmittgen, 2001). Calibrators were chosen as the highest average treatment ΔCt value for each experiment.
Emerging bees that had non-deformed wings (i.e., asymptomatic) were selected for a cage study (n=30 bees per cage & 6 replicate cages per treatment). […] Virally infected untreated bees were compared to bees fed 10 μg/bee MBCD in 50% sucrose solution. In FIG. 6A, DWV (+) sense viral genome titers were compared 3 and 6 days after treatment. An unpaired, 2-tailed Student's T-Test was performed to determine statistical significance (p<0.05 at 3 days feeding; N.S.=Non-significant 6 days after treatment). In FIG. 6B, DWV (−) sense replicative strand titers were compared 3 and 6 days after treatment. An unpaired, 2-tailed Student's T-Test was performed to determine statistical significance (p<0.0001 for 3 days post treatments; p=0.049 for 6 days post treatment). The “★” denotes the sample chosen as the 2^−ΔΔCT calibrator and bars denote standard error.

[4] = test system: glutathione-S-transferase S1 (GSTS1); assay: Transcript levels of honey bee detoxification gene (RT-qPCR); type: in vivo, Apis mellifera; settings: clothianidin plus 10 μg/bee MBCD versus pesticide only, after 3 days of feeding
Experimental: Bees receiving clothianidin were compared to bees receiving the pesticide with the addition of 1 μg or 10 μg/bee MBCD after 3 days of feeding. One-way ANOVA with Tukey multiple comparisons was performed to determine any statistical significance (p<0.05 for Clothianidin versus Clothianidin+10 μg/bee MBCD). The “*” denotes the sample chosen as the 2^−ΔΔCT calibrator. […] Pesticides removed from the immediate environment results in less energy dedicated to detoxification and excretion.
(§2) The presence of DWV and Varroa destructor was determined as follows. Total RNA was extracted from whole body 12 individual honey bees using the TRIzol Reagent® (available from Thermo Fisher Scientific, Waltham, Mass.) by manufacturers specifications, and stored at −80° C. […] Transcript levels (RT-qPCR analysis) were quantified using the Brilliant III Ultra-Fast SYBR Green® QPCR Master Mix (Agilent Technologies, Inc., Santa Clara, Calif.) on a CFX384 Touch Real Time PCR Detection System (Bio-Rad Laboratories, Inc., Hercules, Calif.). […] For the detection and quantification of negative stranded bee viruses, replication intermediates, TAG-DWV primers were substituted for random primers or oligos (see e.g., Boncristiani et al., 2009). The fold difference in viral concentration among different treatment groups was determined using the comparative Ct method (2^−ΔΔCT method) (see e.g., Livak & Schmittgen, 2001). […]

[5] = test system: European honey bees, Apis mellifera; assay: Longevity of healthy adult worker bees in cage study after MBCD treatment; type: in vivo; settings: healthy newly emerged bees, versus control
Experimental: as §1
Newly emerged honey bees were placed in individual cages (n=30 bees per cage & 2 replicate cages per treatment) and fed using a syringe filled with 50% sucrose alone or supplemented with either 1, 10, or 100 μg MBCD per bee/per week. […]

[6] = test system: honey bees infected with Deformed wing virus; assay: Weight of virus-infected honey bees after MBCD treatment; type: in vivo, Apis mellifera; settings: 10 μg/bee MBCD
Experimental: Untreated bees fed only 50% sucrose were compared to bees receiving 10 μg/bee MBCD in 50% sucrose (FIG. 7). Median survival was represented for each treatment by (# days). Curves were compared using Log-Rank Mantel-Cox (p<0.001) and Gehan-Breslow-Wilcoxon (p<0.01). […] The mass ([…]) of control bees was compared to bees fed 10 μg/bee MBCD. Bees were measured 3 (FIG. 8A) and 6 (FIG. 8B) days post feeding. With average bee weight higher along with more bees present, the amount of work accomplished in the hive as a whole would be expected to increase. An unpaired, 2-tailed Student's T-Test was performed to determine statistical significance (p<0.05 at 3 days) and bars denote standard error.

[7] = test system: honey bees infected with Deformed wing virus; assay: Survival of virus-infected honey bees after MBCD treatment; type: in vivo, Apis mellifera; settings: 10 μg/bee MBCD in 50% sucrose, untreated 6 days
Experimental: as §2, with “C. First-strand cDNA was synthesized using the Superscript III Reverse Transcriptase (available in a kit from Thermo Fisher Scientific).” for “C.”
Untreated bees fed only 50% sucrose were compared to bees receiving 10 μg/bee MBCD in 50% sucrose (FIG. 7). […] Bees were measured 3 (FIG. 8A) and 6 (FIG. 8B) days post feeding. […]

[8] = bees fed pesticide alone at sublethal dose in 50% sucrose, control 36 days

Cc1ccc(/N=C/N(C)/C=N/c2ccc(C)cc2C)c(C)c1 [Amitraz, amitraz, reference compound]
colony (hive) loss (honey bee colonies): about 20%
total frames containing bees (honey bee colonies): 48.5 frames

CCOP(=S)(OCC)Oc1nc(Cl)c(Cl)cc1Cl [Chlorpyrifos, chlorpyrifos, reference compound]
median lifespan (honey bees [1]; [8]): 26 days
Sublethal LD25 (honey bee): 0.43 ng/bee

CN/C(=N\[N+](=O)[O-])NCc1cnc(Cl)s1 [Clothianidin, clothianidin, reference compound]
median lifespan (honey bees [1]; [8]): 13.5 days
Sublethal LD25 (honey bee): 1.0 ng/bee
median lifespan (honey bees [2]): 22 days
DWV levels ([3]; clothianidin treated bees compared to bees supplemented with 20 ppm MBCD): higher levels of DWV

CC(O)COC[C@H]1O[C@@H]2O[C@H]3[C@H](O)[C@@H](O)[C@@H](O[C@H]4[C@H](O)[C@@H](O)[C@@H](O[C@H]5[C@H](O)[C@@H](O)[C@@H](O[C@H]6[C@H](O)[C@@H](O)[C@@H](O[C@H]7[C@H](O)[C@@H](O)[C@@H](O[C@H]8[C@H](O)[C@@H](O)[C@@H](O[C@H]1[C@H](O)[C@H]2O)O[C@@H]8COCC(C)O)O[C@@H]7COCC(C)O)O[C@@H]6COCC(C)O)O[C@@H]5COCC(C)O)O[C@@H]4COCC(C)O)O[C@@H]3COCC(C)O (stereo partly drawn) [HPBCD, hydroxypropyl-β-cyclodextrin]
colony (hive) loss (honey bee colonies): about 30%
total frames containing bees (honey bee colonies): 53.5 frames

O=[N+]([O-])NC1=NCCN1Cc1ccc(Cl)nc1 [Imidacloprid, imidacloprid, reference compound]
median lifespan (honey bees [1]; [8]): 32 days
Sublethal LD25 (honey bee): 4.3 ng/bee

methyl-β-cyclodextrin [MBCD]
decrease in GSTS1 transcript level [4]: 1.5 fold
increase in median lifespan ([5]; 1 μg MBCD per bee/per week in 50% sucrose): 9 days
increase in median lifespan ([5]; 10 μg MBCD per bee/per week in 50% sucrose): 6.5 days
median lifespan (honey bees [1]; chlorpyrifos plus 1 μg/bee MBCD, chlorpyrifos alone 26 days): 36.5 days
median lifespan (honey bees [1]; chlorpyrifos plus 10 μg/bee MBCD, chlorpyrifos alone 26 days): 30 days
median lifespan (honey bees [1]; clothianidin plus 1 μg/bee MBCD, clothianidin alone 13.5 days): 31 days
median lifespan (honey bees [1]; clothianidin plus 10 μg/bee MBCD, clothianidin alone 13.5 days): 40 days
median lifespan (honey bees [1]; imidacloprid plus 1 μg/bee MBCD, imidacloprid alone 32 days): 31 days
median lifespan (honey bees [1]; imidacloprid plus 10 μg/bee MBCD, imidacloprid alone 32 days): 36 days
bee weight versus control ([6]; 3 days after feeding): significantly higher weight
bee weight versus control ([6]; 6 days after feeding): statistically comparable
decrease in DWV (+) sense viral genome ([3]; 3 days after treatment): ~2 fold
decrease in DWV (−) sense replicative strand ([3]; 3 days post treatment): approximately 3 fold
decrease in DWV (−) sense replicative strand ([3]; 6 days post treatment): ~2 fold
decrease in DWV (+) sense viral genome ([3]; 6 days post treatment): non-significant decrease
median lifespan [7]: 9 days
